# Biological target: T1, Olfr90 (Mus musculus, UniProt Q0VEL5)
# T1 construct: Flag; expressed in transfected cells; host or cells: HEK293T
# T1 sequence (Q0VEL5 1-310): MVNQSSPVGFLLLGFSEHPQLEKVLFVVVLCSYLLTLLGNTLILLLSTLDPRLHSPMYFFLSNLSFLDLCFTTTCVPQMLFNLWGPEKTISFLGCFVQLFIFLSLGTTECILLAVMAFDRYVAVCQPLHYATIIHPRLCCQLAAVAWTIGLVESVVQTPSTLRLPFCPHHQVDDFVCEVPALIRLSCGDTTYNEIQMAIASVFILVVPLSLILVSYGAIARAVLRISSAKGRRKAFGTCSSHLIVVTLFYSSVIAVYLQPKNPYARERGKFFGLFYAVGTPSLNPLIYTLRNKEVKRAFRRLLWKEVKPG
# Assay: Luciferase reporter assay for ligand screening, HEK293T cells transfected with Lucy-Olfr90
# Format: cell-based
# Settings: FIG. 2: p<0.0005 for all conditions vs 0 mM
# From the text: HEK293T cells were transfected with Lucy-Olfr90 and two luciferase constructs, one of which was constitutively active (Renilla) while the other was only activated by an increase in intracellular cyclic AMP due to ligand binding (Firefly).
# A luciferase reporter assay was employed for ligand screening (FIG. 1). In this assay, Olfr90 may be transfected into HEK293T cells along with a firefly luciferase construct whose activity is dependent upon elevated [cAMP]i. Upon binding its ligand, the expressed Olfr90 increases [cAMP]i, leading to increased transcription of firefly luciferase (FIG. 1). A constitutively active luciferase (Renilla) is co-transfected; therefore, the ratio of Firefly/Renilla is a measure of OR activation.
# In this assay, it is essential that the Olfr90 is on the cell surface. […] A novel N-terminal tag which allows for surface trafficking of the majority of the renal Olfr90 was used. This tag is a leucine rich 17 amino acid sequence (“Lucy” tag) that not only aids in trafficking to the surface, but is cleaved before the Olfr90 reaches the cell surface.
# In HEK cells or hana3 cells, Olfr90 will be expressed along with along with a firefly luciferase construct whose activity is dependent upon elevated [cAMP]i. Olfr90 may be transfected with or without various chaperones (Ric8b, RTP1S, REEP, etc.) and with or without various tags (Rho, Flag, Lucy, etc.). Upon binding its ligand, the expressed OR increases [cAMP]i, leading to increased transcription of firefly luciferase. A constitutively active luciferase (Renilla) is co-transfected; therefore, the ratio of Firefly/Renilla is a measure of OR activation.
row,Compound,"Olfr90 response (luciferase output, Firefly/Renilla ratio) to isolated chemicals"
1,"C=CC(O)CCCCC (stereo not drawn) [Odorant 1-Octen-3-ol, 1-Octen-3-ol]",responded in a dose dependent manner
2,"CCCC1CCSC(C)O1 (stereo not drawn) [MPOT, 2-Methyl-4-Propyl-3,1-Oxathiane]",responded in a dose dependent manner
3,C=CC(C)(O)CCC=C(C)C (stereo not drawn) [Linalool],responded in a dose dependent manner

# From US11592445B2, “OLFR90 specificity and methods of detection” (THE JOHNS HOPKINS UNIVERSITY, priority 2016, dated 2023)
